Calls of active or inactive are those of the source. No rule for the calls is given here.

Drawing on PubChem BioAssay AID1259408 (Genetic Toxicology Data Bank (GENE-TOX), 2018), this text covers mutagenic call and call for 20 compounds.

This data set relates to GENE-TOX genotoxicity assays, various organisms and cells. The data set is described as follows: GENE-TOX mutagenicity studies. The settings on record: for call: Assay Type: In vivo carcinogenicity studies.
Where [1] appears, read: Species/Cell Type: Nonhuman, Assay Code: CCG+, Evaluation Type: Evaluation A (Pre-1980).
The mark [2] stands for this setting: Species/Cell Type: Salmonella typhimurium (one or more of the five standard strains: TA98, TA100, TA1535, TA1537, and TA1538), Assay Type: Histidine reverse gene mutation, Ames assay, Assay Code: SALT, Evaluation Type: Evaluation A (Pre-1980).
The mark [3] stands for this setting: Species/Cell Type: Salmonella typhimurium (one or more of the five standard strains: TA98, TA100, TA1535, TA1537, and TA1538), Assay Type: Histidine reverse gene mutation, Ames assay, Assay Code: SAL+, Evaluation Type: Evaluation A (Pre-1980).
Setting [4] is: Species/Cell Type: Bacillus subtilis (H17 vs M45), Assay Type: Rec-assay, spot test, DNA effects (bacterial DNA repair), Assay Code: REW-, Evaluation Type: Evaluation A (Pre-1980).
Where [5] appears, read: Species/Cell Type: Nonhuman, Assay Code: CCGT, Evaluation Type: Evaluation A (Pre-1980).

Consider `NC(N)=S`, for which the mutagenic call was “inactive; negative” (Species/Cell Type: Allium cepa, Assay Type: Chromosome aberrations, Assay Code: ALC-, Evaluation Type: Evaluation A (Pre-1980)); “inactive; negative” (Species/Cell Type: Escherichia coli polA (W3110 vs P3478), Assay Type: Rec-assay, DNA effects (bacterial DNA repair), Assay Code: RE2-, Evaluation Type: Evaluation A (Pre-1980)); “no conclusion” (Species/Cell Type: Escherichia coli polA (W3119 vs P3478), Assay Type: Rec-assay, DNA effects (bacterial DNA repair), Assay Code: RE1T, Evaluation Type: Evaluation A (Pre-1980)); “active; positive” (Species/Cell Type: Fischer rat embryo (RLV/1706) cells, Assay Type: Cell transformation, viral enhanced, Assay Code: CTR+, Evaluation Type: Evaluation A (Pre-1980)); “active; positive” (Species/Cell Type: Fischer rat embryo (SA7/RE) cells, Assay Type: Cell transformation, viral enhanced, Assay Code: CTA+, Evaluation Type: Evaluation A (Pre-1980)); “inactive; negative” (Species/Cell Type: Mouse, Sex: Male, Assay Type: Sperm morphology, Assay Code: SPI-, Evaluation Type: Evaluation A (Pre-1980)). The mutagenic call reads like this: (Species/Cell Type: Nonhuman, Assay Type: Sister-chromatid exchange (SCE) in vitro, Assay Code: SC2+, Evaluation Type: Evaluation B (Post-1980)) “active; positive”; (Species/Cell Type: Saccharomyces cerevisiae, Assay Type: Mitotic recombination or gene conversion, Assay Code: YEH-, Evaluation Type: Evaluation A (Pre-1980)) “inactive; negative”; (Species/Cell Type: Salmonella typhimurium (one or more of the five standard strains: TA98, TA100, TA1535, TA1537, and TA1538), Assay Type: Histidine reverse gene mutation, Ames assay, Assay Code: SAL-, Evaluation Type: Evaluation A (Pre-1980)) “inactive; negative”; (Species/Cell Type: Salmonella typhimurium, Assay Type: Forward and reverse gene mutation, host-mediated assay, Assay Code: HMA+, Evaluation Type: Evaluation A (Pre-1980)) “active; positive”; (Species/Cell Type: Syrian hamster embryo (SA7/SHE) cells, Assay Type: Cell transformation, viral enhanced, Assay Code: CT7-, Evaluation Type: Evaluation A (Pre-1980)) “inactive; negative”; (Species/Cell Type: Syrian hamster embryo (SHE) cells, Assay Type: Cell transformation, clonal assay, Assay Code: CTC+, Evaluation Type: Evaluation A (Pre-1980)) “active; positive”. Moreover, the call under setting [1] was “active; positive”.
Turning to `CCOP(=S)(NC(C)CC)Oc1cc(C)ccc1[N+](=O)[O-]` (centres undefined), the mutagenic call (Species/Cell Type: Salmonella typhimurium, Assay Type: Forward and reverse gene mutation, host-mediated assay, Assay Code: HMA-, Evaluation Type: Evaluation A (Pre-1980)) was “inactive; negative”.
Turning to `Cc1cccc(OC(=O)N(C)N=O)c1`, the mutagenic call by setting is: (Species/Cell Type: Bacillus subtilis (H17 vs M45T), Assay Type: Rec-assay, spot test, DNA effects (bacterial DNA repair), Assay Code: REX+, Evaluation Type: Evaluation A (Pre-1980)) “active; positive”; (Species/Cell Type: Escherichia coli WP2, Assay Type: Tryptophan reverse gene mutation, Assay Code: WP2+, Evaluation Type: Evaluation A (Pre-1980)) “active; positive”.
Turning to `O=S(=O)(Cl)c1cccc2cccnc12`, the mutagenic call under setting [2] was “no conclusion”.
For `N#CC(Cl)Cl`, the mutagenic call reads like this: (Species/Cell Type: Saccharomyces cerevisiae, Assay Type: Mitotic recombination or gene conversion, Assay Code: YEH+, Evaluation Type: Evaluation A (Pre-1980)) “active; positive”; under setting [3], “active; positive”.
As to `O=C(CCc1ccc([N+](=O)[O-])o1)NC1CCCCC1`, for the setting “Species/Cell Type: Neurospora crassa, Assay Type: Forward gene mutation, Assay Code: NEF-, Evaluation Type: Evaluation A (Pre-1980)”, the mutagenic call was “inactive; negative”.
Turning to `C#CCNC(=NCCSCc1nc[nH]c1C)NC#N`, where the note is “Species/Cell Type: Mammalian polychromatic erythrocytes, Assay Type: Micronucleus test, chromosome aberrations, Assay Code: MNT-, Evaluation Type: Evaluation B (Post-1980)”, the mutagenic call was “inactive; negative”.
Regarding `CC1CN(/N=C/c2ccc([N+](=O)[O-])o2)C(=O)N1` (centres undefined), the mutagenic call under setting [3] was “active; positive”.
For the compound `CCCCN(CC(=O)O)N=O`, the mutagenic call under setting [2] is listed as “no conclusion”.
For `[Cl][Sn][Cl]`, the mutagenic call is “inactive; negative” under setting [4]; “inactive; negative” (Species/Cell Type: Escherichia coli WP2 UVRA, Assay Type: Tryptophan reverse gene mutation, Assay Code: WPU-*, Activation: With metabolic activation, Evaluation Type: Evaluation A (Pre-1980)); “inactive; negative” (Species/Cell Type: Nonhuman, Assay Type: Sister-chromatid exchange (SCE) in vitro, Assay Code: SC2-, Evaluation Type: Evaluation B (Post-1980)). Besides, the call (Species/Cell Type: Nonhuman, Assay Code: CCG-L, Evaluation Type: Evaluation A (Pre-1980)) is “inactive; negative”.
In the case of `CN(C)CCC=C1c2ccccc2C=Cc2ccccc21`, the mutagenic call under setting [2] is “no conclusion”.
Take `O=[Se](O)O`: the mutagenic call is “active; positive” (Species/Cell Type: Bacillus subtilis (H17 vs M45), Assay Type: Rec-assay, spot test, DNA effects (bacterial DNA repair), Assay Code: REW+, Evaluation Type: Evaluation A (Pre-1980)); “inactive; negative” under setting [4]; “active; positive” (Species/Cell Type: Human lymphocytes, Assay Type: Sister-chromatid exchange (SCE) in vitro, Assay Code: SCL+D, Dose Response: With dose response, Evaluation Type: Evaluation A (Pre-1980)); “active; positive” (Species/Cell Type: Human lymphocytes, Assay Type: Sister-chromatid exchange (SCE) in vivo, Assay Code: SCY+, Evaluation Type: Evaluation B (Post-1980)); “active; positive” (Species/Cell Type: Human, Assay Type: Sister-chromatid exchange (SCE) in vitro, Assay Code: SC1+D, Dose Response: With dose response, Evaluation Type: Evaluation A (Pre-1980)); “active; positive” (Species/Cell Type: Nonhuman, Assay Type: Sister-chromatid exchange (SCE) in vitro, Assay Code: SC2+D, Dose Response: With dose response, Evaluation Type: Evaluation B (Post-1980)). In addition, the mutagenic call is “active; positive” (Species/Cell Type: Nonhuman, Assay Type: Sister-chromatid exchange (SCE) in vivo, Assay Code: SC3+D, Dose Response: With dose response, Evaluation Type: Evaluation B (Post-1980)) and “active; positive” under setting [3].
For `Cc1cc(O)ccc1[N+](=O)[O-]`, where the note is “Species/Cell Type: Allium cepa, Assay Type: Chromosome aberrations, Assay Code: ALC+, Evaluation Type: Evaluation A (Pre-1980)”, the mutagenic call is “active; positive”.
On to `O=C(O)CN(CC(=O)O)CC(=O)O`, for which the mutagenic call (Species/Cell Type: Drosophila melanogaster, Assay Type: Sex-linked recessive lethal gene mutation, Assay Code: SRL-, Evaluation Type: Evaluation A (Pre-1980)) was “inactive; negative”; the mutagenic call (Species/Cell Type: Mouse, Sex: Male, Assay Type: Heritable translocation test, chromosome aberrations, Assay Code: HTT-, Evaluation Type: Evaluation A (Pre-1980)) was “inactive; negative”; the mutagenic call (Species/Cell Type: Nonhuman, Assay Type: Sister-chromatid exchange (SCE) in vitro, Assay Code: SC2T, Evaluation Type: Evaluation B (Post-1980)) is listed as “no conclusion”; the mutagenic call (Species/Cell Type: Salmonella typhimurium (one or more of the five standard strains: TA98, TA100, TA1535, TA1537, and TA1538), Assay Type: Histidine reverse gene mutation, Ames assay, Assay Code: SALT, Evaluation Type: Evaluation B (Post-1980)) is listed as “no conclusion”; the mutagenic call (Species/Cell Type: Vicia faba, Assay Type: Chromosome aberrations, Assay Code: VIC+, Evaluation Type: Evaluation A (Pre-1980)) is “active; positive”. Further, the call under setting [1] is “active; positive”.
Regarding `O=C1c2ccccc2C(=O)c2c1cc(O)c(CO)c2O`, the mutagenic call under setting [3] was “active; positive”.
On to `O=c1[nH]cccc1[N+](=O)[O-]`, for which the mutagenic call under setting [3] is “active; positive”.
For the compound `Oc1cccc2c1cc1ccc3cccc4ccc2c1c34`, the mutagenic call by setting is: (Species/Cell Type: Chinese hamster lung (V79) cells, Assay Type: Forward gene mutation at the HPRT or ouabain locus, Assay Code: V79-*, Activation: With metabolic activation, Evaluation Type: Evaluation A (Pre-1980)) “inactive; negative”; under setting [2], “no conclusion”. In addition, the call under setting [5] is “no conclusion”.
As for `Oc1cccc2cc3ccc4cccc5ccc(c12)c3c45`, the call under setting [5] is recorded as “no conclusion”. In addition, the mutagenic call under setting [2] was “no conclusion”.
Take `CCOS(=O)(=O)CCCS(=O)(=O)OCC`: the mutagenic call reads like this: (Species/Cell Type: Arabidopsis species, Assay Type: Gene mutation, Assay Code: ARM+D, Dose Response: With dose response, Evaluation Type: Evaluation A (Pre-1980)) “active; positive”; (Species/Cell Type: Hordeum vulgare (barley), Assay Type: Chromosome aberrations, Assay Code: HOC+D, Dose Response: With dose response, Evaluation Type: Evaluation A (Pre-1980)) “active; positive”.
`CCN(CC)c1ccc2c(-c3ccc(S(=O)(=O)O)cc3S(=O)(=O)[O-])c3ccc(=[N+](CC)CC)cc-3oc2c1`: the mutagenic call (Species/Cell Type: Bacillus subtilis (H17 vs M45), Assay Type: Rec-assay, spot test, DNA effects (bacterial DNA repair), Assay Code: REWT, Evaluation Type: Evaluation A (Pre-1980)) is listed as “no conclusion” and the mutagenic call (Species/Cell Type: Bacillus subtilis (H17 vs M45T), Assay Type: Rec-assay, spot test, DNA effects (bacterial DNA repair), Assay Code: REXT, Evaluation Type: Evaluation A (Pre-1980)) is given as “no conclusion”.
